From patent US10696692B2, “Amido-benzyl sulfone and sulfoxide derivates” (Forma TM, LLC, priority 2012, dated 2020)
Like-named read-outs stand apart in the source and are kept apart here.

How the values were obtained:
NAMPT = NAMPT (Homo sapiens (Human), UniProt P43490); assay: Assay 1: Biochemical Inhibition Assay (NAMPT enzymatic reaction, NMN quantified by mass spectrometry); settings: read-out: Biochemical (IC50);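 note: recombinant His-tagged human NAMPT preincubated with compound 15 min, then reacted 30 min at rt with 1 µM NAM, 100 µM PRPP, 2.5 mM ATP, NMN product read by RapidFire MS, normalized to L-Cystathionine internal standard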
Chain of NAMPT (P43490 whole entry): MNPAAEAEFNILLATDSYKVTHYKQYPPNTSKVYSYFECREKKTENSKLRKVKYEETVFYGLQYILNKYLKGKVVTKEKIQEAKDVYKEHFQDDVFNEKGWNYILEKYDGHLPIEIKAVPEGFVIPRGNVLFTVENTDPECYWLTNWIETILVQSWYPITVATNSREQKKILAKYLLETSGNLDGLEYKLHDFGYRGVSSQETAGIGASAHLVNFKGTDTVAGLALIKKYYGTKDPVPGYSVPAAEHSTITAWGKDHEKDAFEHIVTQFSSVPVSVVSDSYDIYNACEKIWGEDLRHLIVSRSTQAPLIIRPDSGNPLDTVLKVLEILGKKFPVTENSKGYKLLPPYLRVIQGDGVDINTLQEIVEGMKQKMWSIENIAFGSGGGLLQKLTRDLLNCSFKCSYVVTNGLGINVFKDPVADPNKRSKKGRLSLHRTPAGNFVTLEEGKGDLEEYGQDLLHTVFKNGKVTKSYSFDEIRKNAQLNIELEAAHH

A2780 cells = assay: Assay 2: In-Vitro Cell Proliferation Assay (A2780 cells, SRB readout, 72 hours); assay type: cell-based; settings: A2780 cells, 72 hours, SRB, read-out: Cell Proliferation (IC50);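 note: viable cells counted via sulforhodamine B staining, absorbance at 570 nm, after 72 h exposure at 37 °C, DMSO 0.1% as control, media-only background subtracted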

Molecule	IC50 (NAMPT) [µM]	IC50 (A2780 cells; Homo sapiens, A2780, 72 h) [µM]	IC50 (A2780 cells) [µM]
1H-Pyrazolo[3,4- b]pyridine-5-carboxylic acid 4-(4-hydroxymethyl- piperidine-1-sulfonyl)- benzylamide [Example 174]	0.152	–	0.0844
O=C(NCc1ccc(S(=O)(=O)N2CCCC(O)C2)cc1)c1ccc2nccn2c1 (racemic) [Example 19, Imidazo[1,2-a)pyridine-6-carboxylic acid 4-(3-hydroxy-piperidine-1-sulfonyl)-benzylamide]	0.0181	0.0253	–
O=C(NCc1ccc(S(=O)(=O)N2CCCC(O)C2)cc1)c1cnc2nccn2c1 (racemic) [Example 32, Imidazo[1,2-a]pyrimidine-6-carboxylic acid 4-(3-hydroxy-piperidine-1-sulfonyl)-benzylamide]	0.0077	0.861	–
O=C(NCc1ccc(S(=O)(=O)N2CCCC(O)C2)cc1)c1cnc2[nH]ncc2c1 (racemic) [Example 33, 1H-Pyrazolo[3,4-b]pyridine-5-carboxylic acid 4-(3-hydroxy-piperidine-1-sulfonyl)-benzylamide]	0.169	0.184	–
O=C(NCc1ccc(S(=O)(=O)N2CCCC(O)C2)cc1)c1cc2ccncc2o1 (racemic) [Example 34, Furo[2,3-c]pyridine-2-carboxylic acid 4-(3-hydroxy-piperidine-1-sulfonyl)-benzylamide]	0.0257	0.0519	–
O=C(NCc1ccc(S(=O)(=O)N2CCCC(O)C2)cc1)c1cc2cnccc2[nH]1 (racemic) [Example 35, 1H-Pyrrolo[3,2-c]pyridine-2-carboxylic acid 4-(3-hydroxy-piperidine-1-sulfonyl)-benzylamide]	0.0383	0.0351	–
CC(=O)N(C)C1CCN(S(=O)(=O)c2ccc(CNC(=O)c3ccc4nccn4c3)cc2)C1 (racemic) [Example 101, Imidazo[1,2-a]pyridine-6-carboxylic acid 4-[3-(acetyl-methyl-amino)-pyrrolidine-1-sulfonyl]-benzylamide]	0.0203	0.0097	–
CC(C)N1CCN(S(=O)(=O)c2ccc(CNC(=O)c3ccc4nccn4c3)cc2)CC1 [Example 18, Imidazo[1,2-a]pyridine-6-carboxylic acid 4-(4-isopropyl-piperazine-1-sulfonyl)-benzylamide]	–	0.0129	–
O=C(NCc1ccc(S(=O)(=O)N2CCCCC2)cc1)c1cnc2cn[nH]c2c1 [Example 49, 1H-Pyrazolo[4,3-b]pyridine-6-carboxylic acid 4-(piperidine-1-sulfonyl)-benzylamide]	2	–	–

Further lines, with some results ahead:

IC50 (NAMPT) [µM]	IC50 (A2780 cells; Homo sapiens, A2780, 72 h) [µM]	Molecule	IC50 (A2780 cells) [µM]
0.0345	0.0051	CC(C)(C)OC(=O)N1CCC2(CCCN(S(=O)(=O)c3ccc(CNC(=O)c4ccc5nccn5c4)cc3)C2)C1 (racemic) [Example 102, 7-(4-{[(Imidazo[1,2-a]pyridine-6-carbonyl)-amino]-methyl}-benzenesulfonyl)-2,7-diaza-spiro[4.5]decane-2-carboxylic acid tert-butyl ester]	–
0.0056	0.0025	O=C(NCc1ccc(S(=O)(=O)N2CCC(C(F)(F)F)C2)cc1)c1ccc2nccn2c1 (racemic) [Example 111, Imidazo[1,2-a]pyridine-6-carboxylic acid 4-(3-trifluoromethyl-pyrrolidine-1-sulfonyl)-benzylamide]	–
–	0.0351	O=C(NCc1ccc(S(=O)(=O)N2CCC(N3CCCC3)CC2)cc1)c1cnc2[nH]ncc2c1 [Example 156, 1 H-Pyrazolo[3,4-b]pyridine-5-carboxylic acid 4-(4-pyrrolidin-1-yl-piperidine-1-sulfonyl)-benzylamide]	–
–	0.182	O=C(NCc1ccc(S(=O)(=O)N2CC3COCC3C2)cc1)c1cnc2[nH]ncc2c1 (centres unmarked) [Example 158, 1H-Pyrazolo[3,4-b]pyridine-5-carboxylic acid 4-(tetrahydro-furo[3,4-c]pyrrole-5-sulfonyl)-benzylamide]	–
–	0.0134	CCN1CCC([S+]([O-])c2ccc(CNC(=O)c3ccc4nccn4c3)cc2)CC1 (centres unmarked) [Example 370, N-[[4-[(1-ethyl-4-piperidyl)sulfinyl]phenyl]methyl]imidazo[1,2-a]pyridine-6-carboxamide]	–
